Reference: paper PMC5760531, “Action Potential Recording and Pro-arrhythmia Risk Analysis in Human Ventricular Trabeculae” (Frontiers in Physiology, 2018)

System: human ventricular trabeculae
Assay: Action potential recording and pro-arrhythmic score analysis in human ventricular trabeculae (hVT);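 also: sharp microelectrode action potential recordings at 37°C in Tyrode-perfused trabeculae, 4 cumulative concentrations each applied 31 min, values averaged over last 30 APs, vehicle 0.1% DMSO as control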
Conditions: for EADs (raw data) / Refractoriness Escape (raw data) / Beat Escape (raw data): n=4 trabeculae
[1] = 2Hz, 0.7-FOLD free ETPC (4.1µM)

Protocol: Briefly, the human heart was transferred into a dissection vessel containing a cold (4°C), fresh proprietary dissection solution. The heart was maintained completely submerged in dissection solution. Ventricular trabeculae were dissected and transferred to the recording chamber.
Briefly, a single tissue was mounted into the experimental chamber filled with oxygenated Tyrode's external solution. The temperature of the solution was maintained at 37°C with flow rate at 5 mL per minute. The tissue was allowed to equilibrate for 30–60 min with stimulation (3 V, 3 ms) at a frequency of 1.0 Hz. High impedance borosilicate microelectrodes were prepared with a tip resistance of 10–20 MΩ once filled with 3 M KCl. Upon tissue impalement, the membrane potential was allowed to stabilize (typically, around −85 mV). Tissues with resting membrane potentials more positive than −75 mV were rejected. Bipolar stimulation at 1.5x threshold was applied and recordings were performed in continuous mode with sampling at 20 kHz using ADInstruments and LabChart Software.
Interruption of perfusion/oxygenation; (2). Absence of Aps following stimulation at baseline; (3). Time frame of drug exposure not respected; (4). Unstable response to stimulation at baseline; (5). Resting membrane potential (RMP) > −75 mV; 7). Maximal amplitude of AP (AMAX) <70 mV; 8). AP duration at 90% repolarization (APD90) <200 ms or >450 ms.
Experimental Procedure: Each test article was evaluated at 4 concentrations in 4 ventricular trabeculae derived from a minimum of 2 donor hearts. Testing concentrations were chosen based upon human free ETPC, aiming to cover 1–100-fold of human free ETPC. […] Briefly, following stabilization of each tissue, APs were collected and assessed for 31 min in vehicle control solution (Tyrode with 0.1% DMSO) at stimulation frequencies of 1 Hz for 25 min, 2 Hz for 3 min and then 1 Hz for 3 min. Following this vehicle control period, 4 concentrations of a test compound were applied sequentially and cumulatively. Each concentration was applied for 31 min with the same stimulation sequence as in vehicle controls.
For each frequency tested, the last 30 APs acquired at the end of the period were averaged for vehicle controls and for each test article concentration. Analysis at 1 Hz included only the last 30 APs of the initial 25-min incubation period. The following AP parameters and pro-arrhythmia variables were analyzed offline upon the completion of recordings:
• RMP (mV) • AMAX (mV) • AP duration at percent repolarization (APD20, APD30, APD50, APD60, APD90) (ms) • Short term variability analysis of AP duration (STV): Beat-to-beat variability of repolarization was quantified as STV from APD90 Poincare plots over a period of 30 sec.
Compound effects were quantified relative to the data collected during the vehicle control period (see Figure 1). […] Additionally, based on AnaBios historical data, threshold values for changes over baseline control for AP instability, APD alternans, Maximum APD dispersion and ERP (APD) were based upon an effect level of 10%. When applicable, differences were tested for statistical significance using the unpaired Student's t-test. A value of P < 0.05 was considered significant.
AP parameters and pro-arrhythmia variables were combined into a meaningful, single score to assess the pro-arrhythmic risk of a compound at each concentration tested. The pro-arrhythmic potential of compounds at 1 or 2 Hz was determined by assigning a weighted scale to each variable (Table 1).

With `Cc1cccc(C)c1OCC(C)N` (stereo not shown) [MEXILETINE, Mexiletine] the “EADs (raw data)” value (1Hz, 73-FOLD free ETPC (4.1µM)) was 0, the “Refractoriness Escape (raw data)” value (1Hz, 73-FOLD free ETPC (4.1µM)) was 0 and the “AMAX (average raw data)” value [1] was 105. The “AMAX percentage change compared to vehicle control” value (from here on “AMAX percentage change”) [1] was -2%, the “APD30 (average raw data)” value [1] was 126 and the “APD30 percentage change compared to vehicle control” value (from here on “APD30 percentage change”) [1] was -7%. For the same molecule, the “APD50 (average raw data)” value [1] was 172, the “APD50 percentage change compared to vehicle control” value (shortened to “APD50 percentage change”) [1] was -4% and the “APD90 (average raw data)” value [1] was 257. For the same molecule, the “APD90 percentage change compared to vehicle control” value (“APD90 percentage change” below) [1] was -1%, the “Alternans (average raw data)” value [1] was 2.02 and the “Alternans percentage change compared to vehicle control” value (from here on “Alternans percentage change”) [1] was 59%. The “Beat Escape percentage change compared to vehicle control” value [1] was 50%, the “EADs percentage change compared to vehicle control” value (shortened to “EADs percentage change”) [1] was 0% and the “ERP (average raw data)” value [1] was 0.45. For the same molecule, the “ERP percentage change compared to vehicle control” value (shortened to “ERP percentage change”) [1] was 5%, the “Max Dispersion (average raw data)” value [1] was 6.13 and the “Max Dispersion percentage change compared to vehicle control” value (from here on “Max Dispersion percentage change”) [1] was -14%. The “RMP (average raw data)” value [1] was -88, the “RMP percentage change compared to vehicle control” value (“RMP percentage change” below) [1] was 0% and the “Refractoriness Escape percentage change compared to vehicle control” value (“Refractoriness Escape percentage change” below) [1] was 0%. For the same molecule, the “STV (average raw data)” value [1] was 1.38, the “STV percentage change compared to vehicle control” value (from here on “STV percentage change”) [1] was 81% and the “Triangulation (average raw data)” value [1] was 131. For the same molecule, the “Triangulation percentage change compared to vehicle control” value (from here on “Triangulation percentage change”) [1] was 5%, the “Beat Escape (raw data)” value [1] was 2 and the “EADs (raw data)” value [1] was 0. For the same molecule, the “Refractoriness Escape (raw data)” value [1] was 0, the “AMAX (average raw data)” value (2Hz, 7-FOLD free ETPC (4.1µM)) was 99 and the “AMAX percentage change” value (2Hz, 7-FOLD free ETPC (4.1µM)) was -8%. For the same molecule, the “APD30 (average raw data)” value (2Hz, 7-FOLD free ETPC (4.1µM)) was 128, the “APD30 percentage change” value (2Hz, 7-FOLD free ETPC (4.1µM)) was -6% and the “APD50 (average raw data)” value (2Hz, 7-FOLD free ETPC (4.1µM)) was 167. For the same molecule, the “APD50 percentage change” value (2Hz, 7-FOLD free ETPC (4.1µM)) was -8%, the “APD90 (average raw data)” value (2Hz, 7-FOLD free ETPC (4.1µM)) was 255 and the “APD90 percentage change” value (2Hz, 7-FOLD free ETPC (4.1µM)) was -2%. For the same molecule, the “Alternans (average raw data)” value (2Hz, 7-FOLD free ETPC (4.1µM)) was 1.03, the “Alternans percentage change” value (2Hz, 7-FOLD free ETPC (4.1µM)) was -19% and the “Beat Escape percentage change compared to vehicle control” value (2Hz, 7-FOLD free ETPC (4.1µM)) was 75%. For the same molecule, the “EADs percentage change” value (2Hz, 7-FOLD free ETPC (4.1µM)) was 0%, the “ERP (average raw data)” value (2Hz, 7-FOLD free ETPC (4.1µM)) was 0.39 and the “ERP percentage change” value (2Hz, 7-FOLD free ETPC (4.1µM)) was -9%. The “Max Dispersion (average raw data)” value (2Hz, 7-FOLD free ETPC (4.1µM)) was 4.70, the “Max Dispersion percentage change” value (2Hz, 7-FOLD free ETPC (4.1µM)) was -34% and the “RMP (average raw data)” value (2Hz, 7-FOLD free ETPC (4.1µM)) was -89. For the same molecule, the “RMP percentage change” value (2Hz, 7-FOLD free ETPC (4.1µM)) was 1%, the “Refractoriness Escape percentage change” value (2Hz, 7-FOLD free ETPC (4.1µM)) was 0% and the “STV (average raw data)” value (2Hz, 7-FOLD free ETPC (4.1µM)) was 0.76. The “STV percentage change” value (2Hz, 7-FOLD free ETPC (4.1µM)) was 3%, the “Triangulation (average raw data)” value (2Hz, 7-FOLD free ETPC (4.1µM)) was 127 and the “Triangulation percentage change” value (2Hz, 7-FOLD free ETPC (4.1µM)) was 2%. For the same molecule, the “Beat Escape (raw data)” value (2Hz, 7-FOLD free ETPC (4.1µM)) was 3, the “EADs (raw data)” value (2Hz, 7-FOLD free ETPC (4.1µM)) was 0 and the “Refractoriness Escape (raw data)” value (2Hz, 7-FOLD free ETPC (4.1µM)) was 0. The “AMAX (average raw data)” value (2Hz, 24-FOLD free ETPC (4.1µM)) was 90, the “AMAX percentage change” value (2Hz, 24-FOLD free ETPC (4.1µM)) was -16% and the “APD30 (average raw data)” value (2Hz, 24-FOLD free ETPC (4.1µM)) was 129. For the same molecule, the “APD30 percentage change” value (2Hz, 24-FOLD free ETPC (4.1µM)) was -4%, the “APD50 (average raw data)” value (2Hz, 24-FOLD free ETPC (4.1µM)) was 169 and the “APD50 percentage change” value (2Hz, 24-FOLD free ETPC (4.1µM)) was -7%. For the same molecule, the “APD90 (average raw data)” value (2Hz, 24-FOLD free ETPC (4.1µM)) was 269, the “APD90 percentage change” value (2Hz, 24-FOLD free ETPC (4.1µM)) was 3% and the “Alternans (average raw data)” value (2Hz, 24-FOLD free ETPC (4.1µM)) was 30.91. For the same molecule, the “Alternans percentage change” value (2Hz, 24-FOLD free ETPC (4.1µM)) was 2347%, the “EADs percentage change” value (2Hz, 24-FOLD free ETPC (4.1µM)) was 0% and the “ERP (average raw data)” value (2Hz, 24-FOLD free ETPC (4.1µM)) was 0.37. The “ERP percentage change” value (2Hz, 24-FOLD free ETPC (4.1µM)) was -13%, the “Max Dispersion (average raw data)” value (2Hz, 24-FOLD free ETPC (4.1µM)) was 59.90 and the “Max Dispersion percentage change” value (2Hz, 24-FOLD free ETPC (4.1µM)) was 741%. For the same molecule, the “RMP (average raw data)” value (2Hz, 24-FOLD free ETPC (4.1µM)) was -88, the “RMP percentage change” value (2Hz, 24-FOLD free ETPC (4.1µM)) was 0% and the “Refractoriness Escape percentage change” value (2Hz, 24-FOLD free ETPC (4.1µM)) was 0%. For the same molecule, the “STV (average raw data)” value (2Hz, 24-FOLD free ETPC (4.1µM)) was 21.80, the “STV percentage change” value (2Hz, 24-FOLD free ETPC (4.1µM)) was 2766% and the “Triangulation (average raw data)” value (2Hz, 24-FOLD free ETPC (4.1µM)) was 139. For the same molecule, the “Triangulation percentage change” value (2Hz, 24-FOLD free ETPC (4.1µM)) was 11%, the “Beat Escape (raw data)” value (2Hz, 24-FOLD free ETPC (4.1µM)) was 4 and the “EADs (raw data)” value (2Hz, 24-FOLD free ETPC (4.1µM)) was 0. The “Refractoriness Escape (raw data)” value (2Hz, 24-FOLD free ETPC (4.1µM)) was 0, the “AMAX (average raw data)” value (2Hz, 73-FOLD free ETPC (4.1µM)) was 43 and the “AMAX percentage change” value (2Hz, 73-FOLD free ETPC (4.1µM)) was -60%. For the same molecule, the “APD30 (average raw data)” value (2Hz, 73-FOLD free ETPC (4.1µM)) was 82, the “APD30 percentage change” value (2Hz, 73-FOLD free ETPC (4.1µM)) was -30% and the “APD50 (average raw data)” value (2Hz, 73-FOLD free ETPC (4.1µM)) was 118. For the same molecule, the “APD50 percentage change” value (2Hz, 73-FOLD free ETPC (4.1µM)) was -30%, the “APD90 (average raw data)” value (2Hz, 73-FOLD free ETPC (4.1µM)) was 234 and the “APD90 percentage change” value (2Hz, 73-FOLD free ETPC (4.1µM)) was -3%. The “Alternans (average raw data)” value (2Hz, 73-FOLD free ETPC (4.1µM)) was 21.46, the “Alternans percentage change” value (2Hz, 73-FOLD free ETPC (4.1µM)) was 1598% and the “EADs percentage change” value (2Hz, 73-FOLD free ETPC (4.1µM)) was 0%. For the same molecule, the “ERP (average raw data)” value (2Hz, 73-FOLD free ETPC (4.1µM)) was 0.45, the “ERP percentage change” value (2Hz, 73-FOLD free ETPC (4.1µM)) was 5% and the “Max Dispersion (average raw data)” value (2Hz, 73-FOLD free ETPC (4.1µM)) was 35.75. The “Max Dispersion percentage change” value (2Hz, 73-FOLD free ETPC (4.1µM)) was 402%, the “RMP (average raw data)” value (2Hz, 73-FOLD free ETPC (4.1µM)) was -68 and the “RMP percentage change” value (2Hz, 73-FOLD free ETPC (4.1µM)) was -19%. For the same molecule, the “Refractoriness Escape percentage change” value (2Hz, 73-FOLD free ETPC (4.1µM)) was 0%, the “STV (average raw data)” value (2Hz, 73-FOLD free ETPC (4.1µM)) was 15.46 and the “Triangulation (average raw data)” value (2Hz, 73-FOLD free ETPC (4.1µM)) was 152. The “Triangulation percentage change” value (2Hz, 73-FOLD free ETPC (4.1µM)) was 25%, the “Beat Escape (raw data)” value (2Hz, 73-FOLD free ETPC (4.1µM)) was 2 and the “EADs (raw data)” value (2Hz, 73-FOLD free ETPC (4.1µM)) was 0. For the same molecule, the “Refractoriness Escape (raw data)” value (2Hz, 73-FOLD free ETPC (4.1µM)) was 0.
